Positions of bridges follow the written chain, without caps; N, C: chain ends. Non-standard residues stand in square brackets, D forms with d. Residues, ends and D or L forms follow the SMILES beside them. 1Nal = N[C@@H](Cc1cccc2ccccc12)C(=O)O; 2Nal = N[C@@H](Cc1ccc2ccccc2c1)C(=O)O
biological target: T1, hVEGF-A (Homo sapiens, UniProt P15692); assay: KDR-CHO VEGF assay to determine cellular IC50 (VEGF mediated Tyr phosphorylation of KDR); format: cell-based; details: Table 36, from cellular IC50
T1 sequence (P15692 207-395): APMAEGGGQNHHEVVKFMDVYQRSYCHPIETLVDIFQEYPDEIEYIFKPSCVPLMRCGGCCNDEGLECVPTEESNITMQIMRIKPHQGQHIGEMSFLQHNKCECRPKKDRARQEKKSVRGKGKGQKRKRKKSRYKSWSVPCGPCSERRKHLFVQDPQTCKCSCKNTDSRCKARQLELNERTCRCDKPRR
Procedure: KDR-CHO cells (CHO cells stably transfected with gD tagged-KDR) were grown in cell growth medium (DMEM/Ham's F-12, 10% diafiltered FBS (GIBCO catalog no. 26400), 25 mM HEPES, 2 mM L-GLUTAMAX™). For VEGF stimulation assay, 5×10^4 cells/well were plated in 100 μl of cell plating medium (DMEM/Ham's F-12, 0.2% BSA, 0.25% diafiltered FBS, 25 mM HEPES, 2 mM L-GLUTAMAX™) in 96-well tissue culture plate and incubated at 37° C. overnight. The medium was replaced with 100 I1 of serum-free cell stimulation medium (DMEM/Ham's F-12, 0.5% BSA, 25 mM HEPES) and cells were incubated at 37° C. for 2 hr. One hour before stimulation, the medium was replaced with 50 I1 of serum-free cell stimulation medium. Concurrently, VEGF (50 ng/ml for hVEGF, 100 ng/ml for mVEGF and rVEGF) was pre-incubated with titrated amount of CKP or anti-VEGF in 50 μl of serum-free cell stimulation medium at 37° C. for 1 hour and added to the cells. The cells were stimulated for 15 min at 37 C and the medium is removed. The cells were lysed with 130 I1 of ice-cold cell lysis buffer (150 mM NaCl, 50 mM HEPES, 0.5% Triton-X 100, HALT protease and phosphatase inhibitor cocktail (ThermoFisher Scientific, Inc. catalog no. 78444), 5 mM EDTA). VEGF mediated Tyr phosphorylation of KDR was determined by ELISA-based assay. Briefly, MAXISORP™ 96 well plates (ThermoFisher Scientific, Inc. catalog no. 439454) were coated with 100 I1 of anti-gD antibody diluted in PBS (1 μg/ml) at 4° C. overnight and washed three times with washing buffer (PBS, 0.05% TWEEN®20, pH 7.4). The plates were blocked with 300 I1 of blocking buffer (PBS, 0.5% BSA) at room temperature for 1 hour followed by washing three times with washing buffer. The above KDR-CHO cell lysate (100 μl) was added to each well and incubated at room temperature for 2 hours. The plates were washed four times with washing buffer followed by incubation with 100 I1 of 0.5 μg/ml biotin-conjugated anti-phosphotyrosine (clone 4G10, Millipore catalog no. 16-103) in blocking buffer at room temperature for 2 hours. After washing four times, the plates were incubated with 100 I1 of HRP-conjugated streptavidin in blocking buffer at room temperature for 30 min. After washing four times, the plates were developed with 100 I1 of TMB substrate (BD Biosciences) at room temperature for 20-30 min and stopped by addition of 50 μl of H2SO4 solution. The optical density of each well was determined using a microplate reader set to 450 nm.

Row | Compound | FOLD IMPROVEMENT RELATIVE TO VARIANT 9.54.90
1 | CC[C@H](C)[C@H](NC(=O)[C@@H]1CSSC[C@H](NC(=O)CN)C(=O)N[C@@H](CC(N)=O)C(=O)N[C@@H]([C@@H](C)CC)C(=O)N[C@@H](CCSC)C(=O)N[C@@H](CC(C)C)C(=O)N2CCC[C@H]2C(=O)N[C@@H](Cc2ccccc2)C(=O)N[C@@H](Cc2c[nH]c3ccccc23)C(=O)NCC(=O)N[C@H]2CSSC[C@H](NC(=O)[C@H](CCC(=O)O)NC(=O)[C@H](Cc3ccccc3)NC(=O)[C@H](CC(=O)O)NC(=O)[C@H](CCCNC(=N)N)NC(=O)CNC2=O)C(=O)N[C@@H](CCSC)C(=O)N[C@@H](CCC(=O)O)C(=O)N[C@@H](CCC(N)=O)C(=O)N1)C(=O)N[C@H]1CSSC[C@@H](C(=O)NCC(=O)O)NC(=O)[C@H](CO)NC(=O)[C@H](CCC(N)=O)NC(=O)[C@H](Cc2ccc(O)cc2)NC(=O)[C@H](Cc2ccc(O)cc2)NC(=O)[C@H](CCC(N)=O)NC1=O [9.54.90.67] (H-GCNIMLPFWGCGRDFECMEQCICQYYQSCG-OH; disulfide 2-21, 11-17, 23-29; N-terminus and C-terminus assumed) | 1.23
2 | CC[C@H](C)[C@H](NC(=O)[C@@H]1CSSC[C@H](NC(=O)CN)C(=O)N[C@@H](CC(=O)O)C(=O)N[C@@H](C(C)C)C(=O)N[C@@H](CCSC)C(=O)N[C@@H](CCC(N)=O)C(=O)N2CCC[C@H]2C(=O)N[C@@H](Cc2ccc(O)cc2)C(=O)N[C@@H](Cc2c[nH]c3ccccc23)C(=O)NCC(=O)N[C@H]2CSSC[C@H](NC(=O)[C@H](CC(=O)O)NC(=O)[C@H]([C@@H](C)CC)NC(=O)[C@H](CC(=O)O)NC(=O)[C@@H]3CCCN3C(=O)CNC2=O)C(=O)N[C@@H](CC(C)C)C(=O)N[C@@H](CO)C(=O)N[C@@H](CC(N)=O)C(=O)N1)C(=O)N[C@H]1CSSC[C@@H](C(=O)NCC(=O)O)NC(=O)[C@H](CO)NC(=O)[C@H](CC(N)=O)NC(=O)[C@H](Cc2ccc(O)cc2)NC(=O)[C@H](Cc2c[nH]c3ccccc23)NC(=O)[C@H](Cc2c[nH]cn2)NC1=O [9.63.12.12] (H-GCDVMQPYWGCGPDIDCLSNCICHWYNSCG-OH; disulfide 2-21, 11-17, 23-29; N-terminus and C-terminus assumed) | 2.41

same assay, conditions: Table 38

Row | Compound | cellular potency relative to VEGF_CKP9.54.90
3 | CNIMLPYWGCGRDFECLAGCVCQYYQSC [VEGF_CKP9.54.90 F7Y A2G] | slight reduction of cellular potency

same assay, conditions: Table 38, from cellular IC50

Row | Compound | FOLD IMPROVEMENT RELATIVE TO VARIANT 9.54.90
4 | CC[C@H](C)[C@H](NC(=O)[C@@H]1CSSC[C@H](NC(=O)CN)C(=O)N[C@@H](CC(N)=O)C(=O)N[C@@H]([C@@H](C)CC)C(=O)N[C@@H](CCSC)C(=O)N[C@@H](CC(C)C)C(=O)N2CCC[C@H]2C(=O)N[C@@H](Cc2ccccc2)C(=O)N[C@@H](Cc2c[nH]c3ccccc23)C(=O)NCC(=O)N[C@H]2CSSC[C@H](NC(=O)[C@H](CCC(=O)O)NC(=O)[C@H](Cc3ccccc3)NC(=O)[C@H](CC(=O)O)NC(=O)[C@H](CCCNC(=N)N)NC(=O)CNC2=O)C(=O)N[C@@H](CCSC)C(=O)N[C@@H](CCC(=O)O)C(=O)N[C@@H](CCC(N)=O)C(=O)N1)C(=O)N[C@H]1CSSC[C@@H](C(=O)NCC(=O)O)NC(=O)[C@H](CO)NC(=O)[C@H](CCC(N)=O)NC(=O)[C@H](Cc2ccc(O)cc2)NC(=O)[C@H](Cc2ccc(O)cc2)NC(=O)[C@H](CCC(N)=O)NC1=O [9.54.90.67] (H-GCNIMLPFWGCGRDFECMEQCICQYYQSCG-OH; disulfide 2-21, 11-17, 23-29; N-terminus and C-terminus assumed) | 1.23
5 | CC[C@H](C)[C@@H]1NC(=O)[C@H](CC(N)=O)NC(=O)[C@@H](N)CSSC[C@@H](C(=O)N[C@H](C(=O)N[C@H]2CSSC[C@@H](C(=O)O)NC(=O)[C@H](CO)NC(=O)[C@H](CCC(N)=O)NC(=O)[C@H](Cc3ccc(O)cc3)NC(=O)[C@H](Cc3ccc(O)cc3)NC(=O)[C@H](CCC(N)=O)NC2=O)C(C)C)NC(=O)CNC(=O)[C@H](C)NC(=O)[C@H](CC(C)C)NC(=O)[C@@H]2CSSC[C@H](NC(=O)CNC(=O)[C@H](Cc3c[nH]c4ccccc34)NC(=O)[C@H](Cc3ccc(O)cc3)NC(=O)[C@@H]3CCCN3C(=O)[C@H](CC(C)C)NC(=O)[C@H](CCSC)NC1=O)C(=O)NCC(=O)N[C@@H](CCCNC(=N)N)C(=O)N[C@@H](CC(=O)O)C(=O)N[C@@H](Cc1ccccc1)C(=O)N[C@@H](CCC(=O)O)C(=O)N2 [9.54.90.F7Y.Δ2G] (H-CNIMLPYWGCGRDFECLAGCVCQYYQSC-OH; disulfide 1-20, 10-16, 22-28; N-terminus and C-terminus assumed) | 0.44
6 | CC[C@H](C)[C@@H]1NC(=O)[C@H](CC(N)=O)NC(=O)[C@@H](NC(=O)CN)CSSC[C@@H](C(=O)N[C@H](C(=O)N[C@H]2CSSC[C@@H](C(=O)NCC(=O)O)NC(=O)[C@H](CO)NC(=O)[C@H](CCC(N)=O)NC(=O)[C@H](Cc3ccc(O)cc3)NC(=O)[C@H](Cc3ccc(O)cc3)NC(=O)[C@H](CCC(N)=O)NC2=O)C(C)C)NC(=O)CNC(=O)[C@H](C)NC(=O)[C@H](CC(C)C)NC(=O)[C@@H]2CSSC[C@H](NC(=O)CNC(=O)[C@H](Cc3c[nH]c4ccccc34)NC(=O)[C@H](Cc3ccc(O)cc3)NC(=O)[C@@H]3CCCN3C(=O)[C@H](CC(C)C)NC(=O)[C@H](CCSC)NC1=O)C(=O)NCC(=O)N[C@@H](CCCNC(=N)N)C(=O)N[C@@H](CC(=O)O)C(=O)N[C@@H](Cc1ccccc1)C(=O)N[C@@H](CCC(=O)O)C(=O)N2 [9.54.90.F8Y] (H-GCNIMLPYWGCGRDFECLAGCVCQYYQSCG-OH; disulfide 2-21, 11-17, 23-29; N-terminus and C-terminus assumed) | 0.85
7 | CCCC[C@@H]1NC(=O)[C@H]([C@@H](C)CC)NC(=O)[C@H](CC(N)=O)NC(=O)[C@@H](NC(=O)CN)CSSC[C@@H](C(=O)N[C@H](C(=O)N[C@H]2CSSC[C@@H](C(=O)NCC(=O)O)NC(=O)[C@H](CO)NC(=O)[C@H](CCC(N)=O)NC(=O)[C@H](Cc3ccc(O)cc3)NC(=O)[C@H](Cc3ccc(O)cc3)NC(=O)[C@H](CCC(N)=O)NC2=O)C(C)C)NC(=O)CNC(=O)[C@H](C)NC(=O)[C@H](CC(C)C)NC(=O)[C@@H]2CSSC[C@H](NC(=O)CNC(=O)[C@H](Cc3c[nH]c4ccccc34)NC(=O)[C@H](Cc3ccccc3)NC(=O)[C@@H]3CCCN3C(=O)[C@H](CC(C)C)NC1=O)C(=O)NCC(=O)N[C@@H](CCCNC(=N)N)C(=O)N[C@@H](CC(=O)O)C(=O)N[C@@H](Cc1ccccc1)C(=O)N[C@@H](CCC(=O)O)C(=O)N2 [9.54.90.M5.Nle] | 0.69
8 | CC[C@H](C)[C@@H]1NC(=O)[C@H](CC(N)=O)NC(=O)[C@@H](NC(=O)CN)CSSC[C@@H](C(=O)N[C@H](C(=O)N[C@H]2CSSC[C@@H](C(=O)NCC(=O)O)NC(=O)[C@H](CO)NC(=O)[C@H](CCC(N)=O)NC(=O)[C@H](Cc3ccc(O)cc3)NC(=O)[C@H](Cc3ccc(O)cc3)NC(=O)[C@H](CCC(N)=O)NC2=O)C(C)C)NC(=O)CNC(=O)[C@H](C)NC(=O)[C@H](CC(C)C)NC(=O)[C@@H]2CSSC[C@H](NC(=O)CNC(=O)[C@H](Cc3cccc4ccccc34)NC(=O)[C@H](Cc3ccccc3)NC(=O)[C@@H]3CCCN3C(=O)[C@H](CC(C)C)NC(=O)[C@H](CCSC)NC1=O)C(=O)NCC(=O)N[C@@H](CCCNC(=N)N)C(=O)N[C@@H](CC(=O)O)C(=O)N[C@@H](Cc1ccccc1)C(=O)N[C@@H](CCC(=O)O)C(=O)N2 [9.54.90.Naph1] (H-GCNIMLPF[1Nal]GCGRDFECLAGCVCQYYQSCG-OH; disulfide 2-21, 11-17, 23-29; N-terminus and C-terminus assumed) | 0.24
9 | CC[C@H](C)[C@@H]1NC(=O)[C@H](CC(N)=O)NC(=O)[C@@H](NC(=O)CN)CSSC[C@@H](C(=O)N[C@H](C(=O)N[C@H]2CSSC[C@@H](C(=O)NCC(=O)O)NC(=O)[C@H](CO)NC(=O)[C@H](CCC(N)=O)NC(=O)[C@H](Cc3ccc(O)cc3)NC(=O)[C@H](Cc3ccc(O)cc3)NC(=O)[C@H](CCC(N)=O)NC2=O)C(C)C)NC(=O)CNC(=O)[C@H](C)NC(=O)[C@H](CC(C)C)NC(=O)[C@@H]2CSSC[C@H](NC(=O)CNC(=O)[C@H](Cc3ccc4ccccc4c3)NC(=O)[C@H](Cc3ccccc3)NC(=O)[C@@H]3CCCN3C(=O)[C@H](CC(C)C)NC(=O)[C@H](CCSC)NC1=O)C(=O)NCC(=O)N[C@@H](CCCNC(=N)N)C(=O)N[C@@H](CC(=O)O)C(=O)N[C@@H](Cc1ccccc1)C(=O)N[C@@H](CCC(=O)O)C(=O)N2 [9.54.90.Naph2] (H-GCNIMLPF[2Nal]GCGRDFECLAGCVCQYYQSCG-OH; disulfide 2-21, 11-17, 23-29; N-terminus and C-terminus assumed) | 0.08

From patent US11155586B2, “Cystine knot scaffold platform” (Genentech, Inc., priority 2015, dated 2021)
